Measurements published in patent US5023266A, “Method of treatment of psychotic disorders” (Synthelabo, priority 1989, dated 1991).
pIC50: −log10 of the molar value.

Each compound was assayed against σ-receptor (assay: Inhibition of [3H]-(+)-3-PPP binding to the σ-receptor in rat cerebral cortex membranes). Conditions: 2nM [3H]-(+)-3-PPP, 90 min at 25° C., non-specific binding defined with 1μM haloperidol, read-out: IC50, concentration which inhibits 50 percent of the [3H]-(+)-3-PPP binding.
Method: In particular their inhibitory activity on the binding of [^3 H](+)3(3-hydroxyphenyl)-N-(1-propyl)-piperidine, or [^3 H]-(+)-3-PPP, to the σ-receptor in the cerebral cortex of rats has been studied, essentially as described in J. Pharmacol. Exp. Ther., 238, 739-748, (1986). Male Sprague-Dawley rats (150-200 g) were sacrificed, and the cerebral cortex was homogenized in 25 volumes of ice-cold Tris-HCl buffer (pH 7.4 at 25° C.) with the use of an Ultra-Turrax™ polytron. The homogenate was washed twice by centrifugation (10 min at 45,000g) and intermittent resuspension of the resulting pellet in fresh buffer. The final pellet was resuspended in 20 volumes of 50mM Tris-HCl buffer (pH 8.0 at 22° C.). A 75 μl aliquot of this membrane preparation was then incubated in a final volume of 250 μl with 2nM [^3 H]-(+)-3-PPP (specific activity 90 Ci/mmol; New England Nuclear) for 90 min at 25° C., in the absence or in the presence of competing drugs. After incubation, the membranes were recovered by filtration over 0.05% polyethyleneimine-pretreated Whatman™ GF/B filters using a Skatron™ Cell Harvester, and washed with ±2.5 ml of ice-cold 50mM Tris-HCl buffer (pH 7.7 at 0° C.). Non-specific binding was defined with 1μM haloperidol.
Data were analyzed by conventional graphical techniques and least-squares regression analysis where appropriate.
The following Table indicates the IC50 of the compounds, i.e. the concentration (μM) which inhibits 50 percent of the [^3 H]-(+)-3-PPP.

Row | pIC50 | SMILES
1 | 8.00 | C[C@H]([C@H](O)c1ccc(O)cc1)N1CCC(Cc2ccccc2)CC1 (relative stereo) [Compound 2]
2 | 7.82 | C[C@@H]([C@H](O)c1ccc(O)cc1)N1CCC(Cc2ccccc2)CC1 (single isomer, unassigned) [Compound 3]
3 | 8.01 | OC(CN1CCC(Cc2ccc(F)cc2)CC1)c1ccc(Cl)cc1 (single isomer, unassigned) [Compound 7]
4 | 8.15 | C[C@@H]([C@H](O)c1ccc(O)cc1)N1CCC(Cc2ccccc2)CC1 (single isomer, unassigned) [Compound 4]
5 | 8.04 | OC(CN1CCC(Cc2ccc(F)cc2)CC1)c1ccc(Cl)cc1 (single isomer, unassigned) [Compound 6]
6 | 8.52 | OC(CN1CCC(Cc2ccc(F)cc2)CC1)c1ccc(Cl)cc1 (racemic) [Compound 5]
7 | 8.10 | C[C@@H]([C@H](O)c1ccc(O)cc1)N1CCC(Cc2ccccc2)CC1 (relative stereo) [Compound 1]
